Measurements as given in US4879288A, “Novel dibenzothiazepine antipsychotic” (ICI Americas Inc., priority 1986, dated 1989).
Where a name gives a salt, the structure may show the parent alone. Read-outs that look alike come from different tables or passages of the source.

Tests used:
sensitized cebus monkeys [1] = conditions: for Number of Monkeys with Dyskinetic Reactions/Number Tested: observed eight hours; for duration of reactions / intensity of reactions: typical reactions
Excerpt: The compound of Formula II, clozapine, thioridazine or haloperidol were each orally administered to sensitized cebus monkeys. They were then observed in their home cages continuously for eight hours and occurrences of dyskinetic reactions noted.

sensitized cebus monkeys [2] = conditions: background statement; cited from earlier work
schizophrenic patients = conditions: background statement; cited from earlier work
[3] = tested on: apomorphine-induced climbing; conditions: for Mean Climb Score: 13-14 min after apomorphine HCl 1.25 mg/kg s.c., vehicle 24
Experimental: (§1) A number of tests are recognized as showing antidopaminergic activity of a compound and/or as being predictive of antipsychotic activity in mammals. For these tests a compound of formula II in the form of a salt (for example, as described in Example 2) was used. All dosages in the tables are expressed as free base.
This test has been described by Ther and Schramm [Arch int. Pharmacodyn., 138: 302 (1962); Peuch, Simon and Boissier, Eur. J. Pharm., 50: 291 (1978)]. Mice that are administered an appropriate dose of apomorphine (a dopamine agonist) will climb the walls of a cage or other suitable structure and remain at or near the top for 20-30 minutes. Untreated mice on the other hand will occasionally climb up and then climb down. […] The antagonism of apomorphine-induced climbing in mice is therefore an indication of the potential dopamine blocking activity of the agent. Since dopamine blocking agents are typically antipsychotic agents, the test is considered to be evidence for potential antipsychotic activity of the agent. The vehicle itself [hydroxypropylmethylcellulose (HPMC) 0.5% w/v, polyoxyethylene (20) sorbitan monooleate (Tween 80) .1% w/v, and distilled water] or the vehicle with the test compound of the present invention was administered orally to twenty mice in graded doses. After 30 minutes, apomorphine HCl was administered subcutaneously at 1.25 mg/kg and the mice were placed in cages containing 28 horizontal rungs, upon which the mice could climb. Thirteen minutes later they were scored for climbing. The climbing score was the mean of the highest and lowest rungs on which the mouse climbed during a one-minute time period from 13 ° 14 minutes after apomorphine.

[4] = tested on: amphetamine-induced hyperactivity; conditions: for Activity Score (0-2 Hr) (Mean Number of Crossings of Center Line of Alley): vehicle 148
Experimental: A number of tests are recognized as showing antidopaminergic activity of a compound and/or as being predictive of antipsychotic activity in mammals. For these tests a compound of formula II in the form of a salt (for example, as described in Example 2) was used. All dosages in the tables are expressed as free base. This test has been described by Swerdlow and Koob [Pharmacol. Biochem. and Behav., 23: 303 (1985)]. Rats that are administered amphetamine at a moderate dose become hyperactivity. The hyperactivity can last for several hours, and can be measured in various ways, for example, by counting the number of times the rat walks from one end of a long alley to the other end. […] The hyperactivity of […]-treated rats can be antagonized (prevented) by pretreatment with dopamine-blocking agents. […] The compound of the present invention as the HCl salt or the vehicle (vehicle is defined in Example 5) were administered orally to 20 rats and […] injected intraperitoneally. Activity (walking back and forth in a long alley) was recorded for two hours.

[5] = tested on: rat striatal dihydroxyphenylacetic acid (DOPAC); conditions: rat striatum, HPLC
Excerpt: as §1
(§2) Among the various pharmacological effects of antipsychotics, their action as dopamine antagonists in the brain has been extensively investigated. Enhancement of dopamine metabolism (dihydroxyphenylacetic acid and homovanillic acid (DOPAC and HVA)) by antipsychotic agents has been attributed to a blockade of dopamine receptors [A. Carlson and M. Lindquist, Acta. Pharmac. Tox., (1963) 20: 140]. The effects of a compound of the invention on DOPAC and HVA levels in the rat striatum were measured by HPLC using electrochemcial detection according to the method of Saller and Salama [J. Chromatography, (1984) 309: 287].

[6] = tested on: rat striatal homovanillic acid (HVA); conditions: rat striatum, HPLC
Excerpt: as §1, §2

squirrel monkeys = conditions: for Number of Monkeys Scoring 75% (Or Less) Avoidance Responses/Number Tested: vehicle 0/20
Excerpt: as §1
The conditioned avoidance test has been described by Herz, A., Int. Rev. Neurobiol., (1960) 2: 229-277. In this test, a warning stimulus is presented for five seconds. The monkeys are trained to press a lever to turn off the warning stimulus thereby avoiding the delivery of electric shocks at 1/sec for 10 seconds that would begin at the end of the warning stimulus. If there is no response during the warning stimulus (no avoidance response) and the shocks begin, a response during the shocks stops the shocks. Trials of this type are repeated every minute for six hours. […] A compound of the present invention Formula II (HCl salt) was administered orally and the conditioned avoidance test was administered. The vehicle used was that defined in Example 5.

[7] = at therapeutic doses
[8] = 20 mg/kg p.o., one of two reacting monkeys

## CN1CCN(C2=Nc3cc(Cl)ccc3Nc3ccccc32)CC1 [Clozapine, reference compound]
Sensitized cebus monkeys [1]; 10 mg/kg p.o.
  Number of Monkeys with Dyskinetic Reactions/Number Tested: 0/1
Sensitized cebus monkeys [1]; 20 mg/kg p.o.
  Number of Monkeys with Dyskinetic Reactions/Number Tested: 0/13
Sensitized cebus monkeys [1]; 40 mg/kg p.o.
  Number of Monkeys with Dyskinetic Reactions/Number Tested: 0/11
Sensitized cebus monkeys [1]; 60 mg/kg p.o.
  Number of Monkeys with Dyskinetic Reactions/Number Tested: 0/5
Sensitized cebus monkeys [2]
  dyskinetic reaction in sensitized cebus monkeys: does not produce a dyskinetic reaction
Schizophrenic patients
  tardive dyskinesia reported: no tardive dyskinesia reported

## OCCOCCN1CCN(C2=Nc3ccccc3Sc3ccccc32)CC1 [Formula II (HCl salt), 11-[4-[2-(2-Hydroxyethoxy)ethyl]-1-piperaziny]dibenzo [b,f][1,4]thiazepine, hydrochloride salt]
[3]; 10 mg/kg i.p. (head; text: orally)
  Mean Climb Score: 24
[3]; 20 mg/kg i.p. (head; text: orally)
  Mean Climb Score: 15
[3]; 40 mg/kg i.p. (head; text: orally)
  Mean Climb Score: 2
[3]; 80 mg/kg i.p. (head; text: orally)
  Mean Climb Score: 0
[3]; result in words
  antagonism of apomorphine-induced climbing: antagonized the climbing
[4]; 10 mg/kg p.o., p < .05
  Activity Score (0-2 Hr) (Mean Number of Crossings of Center Line of Alley): 118.3 Crossings
[4]; 20 mg/kg p.o., p < .0005
  Activity Score (0-2 Hr) (Mean Number of Crossings of Center Line of Alley): 92.4 Crossings
[4]; 40 mg/kg p.o., p < .0005
  Activity Score (0-2 Hr) (Mean Number of Crossings of Center Line of Alley): 64.3 Crossings
[4]; 80 mg/kg p.o., p < .0005
  Activity Score (0-2 Hr) (Mean Number of Crossings of Center Line of Alley): 39.8 Crossings
[4]; result in words
  antagonism of amphetamine-induced hyperactivity: antagonized the hyperactivity
[5]; 10 mg/kg i.p.
  % Control DOPAC: 145 % Control
[5]; 20 mg/kg i.p.
  % Control DOPAC: 220 % Control
[5]; 40 mg/kg i.p.
  % Control DOPAC: 300 % Control
[6]; 10 mg/kg i.p.
  % Control HVA: 140 % Control
[6]; 20 mg/kg i.p.
  % Control HVA: 210 % Control
[6]; 40 mg/kg i.p.
  % Control HVA: 260 % Control
Squirrel monkeys; 5 mg/kg p.o.
  Number of Monkeys Scoring 75% (Or Less) Avoidance Responses/Number Tested: 0/4
Squirrel monkeys; 10 mg/kg p.o.
  Number of Monkeys Scoring 75% (Or Less) Avoidance Responses/Number Tested: 15/20
Squirrel monkeys; 20 mg/kg p.o.
  Number of Monkeys Scoring 75% (Or Less) Avoidance Responses/Number Tested: 19/20
Squirrel monkeys; result in words, oral
  reduction of avoidance responses: marked reduction of avoidance responses
Sensitized cebus monkeys [1]; 2.5 mg/kg p.o.
  Number of Monkeys with Dyskinetic Reactions/Number Tested: 0/13
Sensitized cebus monkeys [1]; 5 mg/kg p.o.
  Number of Monkeys with Dyskinetic Reactions/Number Tested: 1/13
Sensitized cebus monkeys [1]; 10 mg/kg
  duration of reaction: about twenty
  intensity of reaction: weak
Sensitized cebus monkeys [1]; 10 mg/kg p.o.
  Number of Monkeys with Dyskinetic Reactions/Number Tested: 1/13
Sensitized cebus monkeys [1]; 20 mg/kg p.o., hydrochloride salt
  Number of Monkeys with Dyskinetic Reactions/Number Tested: 2/13
Sensitized cebus monkeys [1]; 20 mg/kg p.o., listed as compound of the present invention, hydrochloride salt
  Number of Monkeys with Dyskinetic Reactions/Number Tested: two of thirteen
Sensitized cebus monkeys [1]; [8]
  duration of reaction: about five
  intensity of reaction: extremely weak
Sensitized cebus monkeys [1]; 40 mg/kg p.o.
  Number of Monkeys with Dyskinetic Reactions/Number Tested: 0/4
Sensitized cebus monkeys [1]; compared to haloperidol or thioridazine, oral
  dyskinetic and dystonic reactions: markedly fewer dyskinetic and dystonic reactions
Sensitized cebus monkeys [1]; compared to thioridazine or haloperidol, oral
  intensity of the reactions: less than that of thioridazine or haloperidol

## OCCOCCN1CCN(C2=Nc3ccccc3Sc3ccccc32)CC1 [Formula II, 11-[4-[2-(2-Hydroxyethoxy)ethyl]-1-piperazinyl]-dibenzo[b,f][1,4]thiazepine]
[7]
  overt toxicity: No overt toxicity

## O=C(CCCN1CCC(O)(c2ccc(Cl)cc2)CC1)c1ccc(F)cc1 [Haloperidol, reference compound]
Sensitized cebus monkeys [1]; 1.0 mg/kg p.o.
  Number of Monkeys with Dyskinetic Reactions/Number Tested: 13/13
Sensitized cebus monkeys [1]; oral
  duration of reactions: several
  intensity of reactions: moderate or high intensity

## CSc1ccc2c(c1)N(CCC1CCCCN1C)c1ccccc1S2 (stereo not drawn) [Thioridazine, reference compound]
Sensitized cebus monkeys [1]; 10 mg/kg p.o.
  Number of Monkeys with Dyskinetic Reactions/Number Tested: 11/13
Sensitized cebus monkeys [1]; oral
  duration of reactions: several
  intensity of reactions: moderate or high intensity
